Here are results for 39 compounds from patent publication US5457106A, “Pyridine derivatives, their production and use” (Takeda Chemical Industries, Ltd., priority 1991, dated 1995).

Structures can show the parent of a compound that is named as a salt.

The first assay relates to ART (antigen-responding T-cell). Briefly: In vitro ART (antigen-responding T-cell) proliferation test. The settings on record: 1 μM. It counts as cell-based, Lewis rat.
With `O=C(c1ccccc1)N(CCOc1ccncc1)Cc1ccccc1` [Example 117, 4-[2-(N-benzyl-N-benzoyl)aminoethyloxy]pyridine], the “% Inhibition of ART growth” value is reported as 3%.

Staying with this assay, now noted: Rattus norvegicus, T-cell, 1 μM; read-out: % Inhibition of ART growth.
What is called inhibition is the relative decrease from the control value, in per cent. As for `O=C1SC(=Cc2ccccc2)C(=O)N1CCCSc1ccncc1` [Example 154, 4-[3-(5-benzylidene-2,4-thiazolidinedione)propylthio]pyridine], the inhibition at 1 µM came out at 16%.
The same measure, in the same setting: in the case of `CC1(C)NC(=O)N(CCCCSc2ccncc2)C1=O` [Example 140, 5,5-dimethyl-3-[4-(4-pyridylthio)butyl]hydantoin] it was -9%; in that of `O=C1SC(=Cc2ccccc2)C(=O)N1CCCCSc1ccccn1` [Example 164, 2-[4-(5-benzylidene-2,4-thiazolidinedione)butylthio]pyridine], 3%.
Same read-out and setting: to `O=C(c1ccccc1)N(CCSc1ccncc1)Cc1ccccc1` [Example 120, 4-[2-(N-benzyl-N-benzoylamino)ethylthio]pyridine] belongs 16%; to `O=C(N(CCSc1ccncc1)Cc1ccccc1)C(F)(F)F` [Example 119, 4-[2-(N-benzyl-N-trifluoroacetylamino)ethylthio]pyridine], 13%; to `CCCCc1ccc(C(=O)NCCCSc2ccncc2)cc1` [Example 34, 4-[3-(4-n-butylbenzoylamino)propylthio]pyridine hydrochloride], 31%.
As to `COc1ccc(C=C2SC(=O)N(CCCCSc3ccncc3)C2=O)cc1` [Example 152, 4-[4-[5-(4-methoxybenzylidene)-2,4-thiazolidinedione]butylthio]pyridine], the inhibition at 1 µM was -20%.
Consider `O=C1CSC(=O)N1CCCCSc1ccncc1` [Example 160, 4-[4-(2,4-thiazolidinedione)butylthio]pyridine], for which the inhibition at 1 µM was -14%.
`O=C(NCCCOc1ccncc1)c1cc2ccccc2s1` [Example 115, 4-[3-(thianaphthene-2-carbonyl)aminopropyloxy]pyridine hydrochloride]: the inhibition at 1 µM was determined as 18%.

Still in this assay, the particulars now being: Rattus norvegicus, T-cell, 10 μM; read-out: % Inhibition of ART growth.
`O=C1SC(=Cc2ccccc2)C(=O)N1CCCSc1ccncc1` [Example 154, 4-[3-(5-benzylidene-2,4-thiazolidinedione)propylthio]pyridine]: the inhibition at 10 µM was 27%.
Consider `O=C(c1ccccc1)N(CCOc1ccncc1)Cc1ccccc1` [Example 117, 4-[2-(N-benzyl-N-benzoyl)aminoethyloxy]pyridine], for which the inhibition at 10 µM turned out to be 39%.
For the compound `CC1(C)NC(=O)N(CCCCSc2ccncc2)C1=O` [Example 140, 5,5-dimethyl-3-[4-(4-pyridylthio)butyl]hydantoin], the inhibition at 10 µM was -25%.
`O=C1SC(=Cc2ccccc2)C(=O)N1CCCCSc1ccccn1` [Example 164, 2-[4-(5-benzylidene-2,4-thiazolidinedione)butylthio]pyridine]: the inhibition at 10 µM was -54%.
With `O=C(c1ccccc1)N(CCSc1ccncc1)Cc1ccccc1` [Example 120, 4-[2-(N-benzyl-N-benzoylamino)ethylthio]pyridine], the inhibition at 10 µM amounted to 74%.
Same read-out and setting: to `O=C(N(CCSc1ccncc1)Cc1ccccc1)C(F)(F)F` [Example 119, 4-[2-(N-benzyl-N-trifluoroacetylamino)ethylthio]pyridine] belongs 43%; to `CCCCc1ccc(C(=O)NCCCSc2ccncc2)cc1` [Example 34, 4-[3-(4-n-butylbenzoylamino)propylthio]pyridine hydrochloride], 47%.
For `COc1ccc(C=C2SC(=O)N(CCCCSc3ccncc3)C2=O)cc1` [Example 152, 4-[4-[5-(4-methoxybenzylidene)-2,4-thiazolidinedione]butylthio]pyridine], the inhibition at 10 µM was found to be 68%.
As for `O=C1CSC(=O)N1CCCCSc1ccncc1` [Example 160, 4-[4-(2,4-thiazolidinedione)butylthio]pyridine], the inhibition at 10 µM is 33%.
Take `O=C(NCCCOc1ccncc1)c1cc2ccccc2s1` [Example 115, 4-[3-(thianaphthene-2-carbonyl)aminopropyloxy]pyridine hydrochloride]: the inhibition at 10 µM was 53%.

For another assay, the target named is T1, cyclooxygenase (Rattus norvegicus, UniProt Q63921).
T1 construct: from tissue; host or cells: platelets in platelet-rich plasma from rat abdominal aorta blood (Jcl:wistar, male)
T1 sequence (Q63921 27-602): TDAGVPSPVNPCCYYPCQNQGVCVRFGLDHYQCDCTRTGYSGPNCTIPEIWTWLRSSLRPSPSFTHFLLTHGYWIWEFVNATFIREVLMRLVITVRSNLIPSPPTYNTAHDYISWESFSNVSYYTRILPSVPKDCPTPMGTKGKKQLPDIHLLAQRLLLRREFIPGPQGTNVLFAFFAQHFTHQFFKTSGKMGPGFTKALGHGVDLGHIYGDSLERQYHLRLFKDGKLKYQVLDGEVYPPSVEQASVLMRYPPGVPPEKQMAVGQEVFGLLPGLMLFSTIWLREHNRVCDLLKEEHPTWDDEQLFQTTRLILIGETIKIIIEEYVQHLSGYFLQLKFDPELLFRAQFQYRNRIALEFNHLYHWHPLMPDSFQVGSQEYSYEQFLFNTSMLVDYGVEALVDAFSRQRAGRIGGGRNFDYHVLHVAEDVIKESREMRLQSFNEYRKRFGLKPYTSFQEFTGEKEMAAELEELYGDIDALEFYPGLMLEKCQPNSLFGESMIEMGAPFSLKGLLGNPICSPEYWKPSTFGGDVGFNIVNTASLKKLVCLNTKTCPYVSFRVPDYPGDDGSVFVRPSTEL
Briefly: Cyclooxygenase inhibitory activity (HHT formation from arachidonic acid in rat platelet-rich plasma). It counts as cell-based, rat (Jcl:wistar).
Details: not given
By IC50 is commonly meant the point on the concentration scale where inhibition reaches its midpoint. A higher IC50 goes with weaker potency. `O=C(NCCCCOc1ccncc1)c1ccccc1CO` [Example 148, 4-[4-(2-hydroxymethylbenzoyl)aminobutyloxy]pyridine] gave an IC50 of 3.1 µM.
As to `O=C(NCCSc1ccncc1)c1ccccc1O` [Example 168, 4-[2-(2-hydroxybenzoyl)aminoethylthio]pyridine], half-maximal inhibition (IC50) required 3.6 µM.
`O=C1SC(=Cc2ccccc2)C(=O)N1CCCSc1ccncc1` [Example 154, 4-[3-(5-benzylidene-2,4-thiazolidinedione)propylthio]pyridine] displayed a 50% inhibitory concentration (IC50) of 6 µM.
`CCCC(=O)NCCCSc1ccncc1` [Example 14, 4-[3-(butyrylamino)propylthio]pyridine] yielded an IC50 of 13.2 µM.
Regarding `Cn1cccc1C(=O)NCCCSc1ccncc1` [Example 45, 4-[3-(1-methyl-2-pyrrolecarbonylamino)propylthio]pyridine], the half-inhibitory concentration (IC50) was 6.6 µM.
Turning to `O=C(NCCCCSc1ccncc1)c1ccccc1CO` [Example 106, 4-[4-(2-hydroxymethylbenzoyl)aminobutylthio]pyridine], it took 3.7 µM to reach half-maximal inhibition (IC50).
Same read-out and setting: in the case of `CCCCCCCCCC(=O)NCCCCSc1ccncc1` [Example 8] it was 1.1 µM.
Regarding `O=C(NCCCOc1ccccn1)c1cccs1` [Example 61, 2-[3-(2-thenoylamino)propyloxy]pyridine], the IC50 is 11 µM.
As to `COc1ccc(C(=O)NCCCSc2ccncc2)cc1` [Example 30, 4-[3-(4-methoxybenzoylamino)propylthio]pyridine], it took 6.6 µM to reach half-maximal inhibition (IC50).
`O=C1c2ccccc2C(O)N1CCCCSc1ccncc1` (stereo not shown) [Example 107, 4-[4-(3-hydroxyisoindolin-1-on-2-yl)butylthio]pyridine]: the IC50 was found to be 4.3 µM.
With `O=C1c2ccccc2S(=O)(=O)N1CCCCSc1ccncc1` [Example 166, 4-(4-saccharinbutylthio)pyridine], the IC50 is 12 µM.
`CCCCCCCCCCCCCC(=O)NCCCSc1ccncc1` [Example 18, 4-[3-(myristoylamino)propylthio] pyridine] came in with a half-maximal inhibitory concentration (IC50) of 7 µM.
In turn, `CCCCCCCCCC(=O)NCCSc1ccncc1` [Example 7] displayed a 50% inhibitory concentration (IC50) of 4.4 µM.
Compound `O=C(/C=C/c1cnc2ccccc2c1)NCCCSc1ccncc1` [Example 44, 4-[3-(3-quinolineacryloylamino)propylthio]pyridine] displayed an IC50 of 3.3 µM.
`O=C(CCCc1ccccc1)NCCCSc1ccncc1` [Example 39, 4-[3-(4-phenyl-n-butyrylamino)propylthio]pyridine] yielded an IC50 of 4.4 µM.
Still for that read-out and setting: in the case of `CCCCCC(=O)NCCCSc1ccncc1` [Example 15, 4-[3-(hexanoylamino)propylthio]pyridine] it was 5.1 µM.
Same read-out and setting: in the case of `CCCCCCCC(=O)NCCCSc1ccncc1` [Example 16] it was 12.9 µM.
On the same count and under the same terms, to `O=C(NCCCSc1ccncc1)c1ccccc1O` [Example 36, 4-[3-(salicyloylamino)propylthio]pyridine hydrochloride] belongs 6 µM; to `O=C(N(CCSc1ccncc1)Cc1ccccc1)C(F)(F)F` [Example 119, 4-[2-(N-benzyl-N-trifluoroacetylamino)ethylthio]pyridine], 4.6 µM; to `CCCCc1ccc(C(=O)NCCCSc2ccncc2)cc1` [Example 34, 4-[3-(4-n-butylbenzoylamino)propylthio]pyridine hydrochloride], 2.9 µM.
For `CCCCCCCCCC(=O)NCCCCCSc1ccncc1` [Example 9], the midpoint of inhibition, the IC50, lay at 2.2 µM.
Compound `O=C1c2ccccc2C(O)N1CCCOc1ccncc1` (stereo not shown) [Example 99, 4-[3-(3-hydroxyisoindolin-1-on-2-yl)propyloxy]pyridine] returned an IC50 of 12 µM.
For `O=C(NCCCSc1ccncc1)c1cccc2ccccc12` [Example 27, 4-[3-(1-naphthoylamino)propylthio]pyridine hydrochloride], half-maximal inhibition (IC50) required 5.4 µM.
Take `O=C(NCCSc1ccncc1)c1cccs1` [Example 122, 4-(2-thenoylaminoethylthio)pyridine]: the IC50 came out at 3.8 µM.
`CCCCCCCCCC(=O)NCCCCCCSc1ccncc1` [Example 10] had an IC50 of 2.2 µM.
Compound `O=C1[C@H]2CC=CC[C@H]2C(=O)N1CSc1ccncc1` [Example 96, 4-[cis-(1,2,3,6-tetrahydrophthalimido)methylthio]pyridine] gave a 50% inhibitory concentration (IC50) of 13 µM.

Another assay has as its system Mouse phenylquinone writhing. Briefly: Mouse phenylquinone writhing inhibitory activity. It counts as in vivo, mouse (Slc: ICR). The settings on record: 50 mg/kg, orally. The procedure: Mouse Phenylquinone Writhing Inhibitory Activity A Slc: ICR male mouse (4 weeks, weight 17 to 24 g) was used. A test compound suspended in 5% gum arabic solution was administered orally. After 30 minutes, 0.1 ml/10 g body weight of 0.02% phenylquinone solution in water (dissolved by the aid of 5% ethanol) was injected intraperitoneally, and writhing and stretching responses of individual animals were measured for 20 minutes [Siegmund, E., Cadmus, R. and Lu, G.; Proc. Soc. exp. Biol. Med. 95, (1957)].
For `Cl.Cl.O=C(c1ccccc1)N(CCCSc1ccncc1)Cc1ccccn1` [Example 82, 4-[3-(N-2-pyridylmethyl-N-benzoylamino)propylthio]pyridine dihydrochloride], the “Inhibitory percentage (phenylquinone writhing)” value was found to be 47%.

Staying with this assay, now noted: Mus musculus, po, 20 min, 50 mg/kg, orally; read-out: Inhibitory percentage (phenylquinone writhing).
As to `O=C1c2ccccc2C(=O)N1COc1ccccn1` [Example 67, 2-(phthalimidomethyloxy)pyridine], the inhibition in vivo at 50 mg/kg was 49%.
As to `CC(C)(C)C(=O)NCCCOc1ccncc1` [Example 86, 4-(3-pivaloylaminopropyloxy) pyridine], the inhibition in vivo at 50 mg/kg was determined as 51%.
As to `O=C(NCCCOc1ccncc1)c1cccnc1` [Example 87, 4-(3-nicotinoylaminopropyloxy)pyridine], the inhibition in vivo at 50 mg/kg worked out at 47%.
With `O=C(NCCCSc1cccnc1)c1cccs1` [Example 48, 3-[3-(thenoylamino)propylthio]pyridine], the inhibition in vivo at 50 mg/kg amounted to 31%.
For `O=C(NCCCSc1ccncc1)C1CCCCC1` [Example 23, 4-[3-(cyclohexanoylamino)propylthio]pyridine hydrochloride], the inhibition in vivo at 50 mg/kg is 58%.
